{"source": "patent US20140113314A1", "about": "“Two Pore Channels as a Therapeutic Target to Protect Against Myocardial Ischemia and as an Adjuvant in Cardiac Surgery” (priority 2006, published 2014)", "key": {"[1]": {"system": "NaCN induced current from isolated guinea pig ventricular myocytes", "assay": "NaCN induced outward current, whole-cell patch clamp in single ventricular myocytes", "assay_type": "cell-based", "conditions": "for peak current densities induced by NaCN in the presence of blocker / ratio of peak current density induced by NaCN in the presence of blocker to that on exposure to NaCN alone: blocker 200 μM; for sensitivity of NaCN induced current in the presence of altered internal pH: quinidine 0.5 mM (pHin 6.0), Zn^2+ 5 mM (pHin 9.0)"}, "[2]": {"system": "NaCN induced current from isolated guinea pig ventricular myocytes", "conditions": "Ba^2+ 5 mM, extracellular, previously demonstrated; cited from earlier work"}, "IKATP": {"system": "IKATP", "assay": "IKATP activated by pinacidil together with low intracellular ATP, patch clamp in myocytes", "assay_type": "cell-based, guinea pig", "conditions": "for effect on IKATP: IKATP activated by pinacidil 100 μM with intracellular ATP 0.1 mM, Zn^2+ 3 mM", "protocol": "All the cells were held at 0 mV.\nSingle Guinea pig heart cell preparation. Single cardiac myocytes were enzymatically isolated from adult male guinea pig hearts as described in (Gao et al 1992, J Physiol 449:689-704). Guinea pigs, weighing 300 to 500 g, were sacrificed by peritoneal injection with sodium pentobarbital solution (1 ml of 390 mg/ml) in accordance with an approved protocol approved by the IACUC committee at SUNY-Stony Brook. The heart was isolated and placed in Ca^2+ free Tyrode solution and the aorta was cannulated. The heart was then perfused with 50 ml of Ca2+ free Tyrode solution followed by 100 ml of Tyrode solution containing 30 mol/L CaCl2 and 0.4 mg/ml collagenase at 37° C. The heart was then placed in Ca^2+ free Tyrode solution at room temperature for 2 hours. Afterward, a piece of the ventricle was dissected and teased into smaller pieces in Kraft-Brühe (KB) solution (Isenberg et al., 1982 Pflugers Arch 395:6-18) containing (in mM): KCl 83; K2HPO4 30; MgSO4 5; Na-Pyruvic Acid 5; β-OH-Butyric Acid 5; Creatine 5; Taurine 20; Glucose 10; EGTA 0.5; KOH 2; Na2-ATP 5; pH was adjusted to 7.2 by KOH. The dissociated cells were then kept in KB solution at room temperature for at least 1 hour before the experiment. All solutions were bubbled with 100% O2. The isolated cells were stored in KB solution. An Axopatch 1D amplifier (Axon Instruments, Inc) and the patch clamp technique were employed to observe cell membrane current. Patch-pipette resistances were 2 to 3 MΩ before sealing. The pipette solution contained (in mM): K-Aspartic Acid 125; KCl 15; KOH 10; MgCl2 1; HEPES 10; EGTA 11; Mg-ATP 1; pH was adjusted to 7.2 by KOH. The external Tyrode solution contained (in mM): NaCl 137.7; NaOH 2.3; KCl 4; MgCl2 1; HEPES 5; CaCl2 1; CdCl2 1; Glucose 10; pH was adjusted to 7.4 by NaOH. Under these conditions, the L-type Ca^2+ current, the Na^+/Ca^2+ exchange current and the Na^+/K^+ pump current will be absent. […] All experiments were carried out at room temperature (22±1° C.). […] All patch clamp data were digitized by the data acquisition program pClamp8 (Axon Instruments, Inc) for later analysis. Cell capacitance was obtained for each cell and currents were normalized to cell capacitances."}, "myocytes": {"system": "myocytes", "assay": "Myocyte shrinkage associated with the NaCN induced current", "assay_type": "cell-based, guinea pig", "conditions": "quinidine 0.5 mM, Zn2+ 3 mM"}, "[3]": {"system": "temperature jump (TJ) induced current in guinea pig myocytes", "assay": "Temperature jump (TJ) induced current in myocytes", "assay_type": "cell-based", "text": "FIG. 15. The characterization of temperature jump (TJ) induced current in guinea pig myocytes. A. Sample trace of TJ induced outward current. Note the current can decay on its own. B. The TJ induced current (upper panel) and its I/V relationships (lower panel). Cells were held at […] and were subject to depolarizing voltage ramps from […] to +50 mV (250 ms duration) with a frequency of 0.1 Hz. Since the current measured at the peak c is out of the current amplitude range of the amplifier, another point near the peak (b) was chosen to construct the I/V curves of the current. C, D, E, and F. Biophysical properties of TREK-1 a heat-activated K2P channel. […] I. Summary of the inhibitory effects of Zn^2+ and quinidine on the TJ induced current (unpaired p<0.01, t-test)."}}, "note": "“Also recorded” adds a separate entry of the source. Read-outs that look alike come from different tables or passages of the source.", "data": [{"smiles": "CCCCCC(O)CCCC(=O)O", "note": "(centres unmarked) [5-HD, 5-hydroxydecanoic acid]", "values": [{"measurement": "effect on NaCN induced current", "setting": "[1]; agent 200 μM", "result": "does not inhibit the NaCN induced current; also recorded: does not result in a reduced current amplitude"}, {"measurement": "peak current densities induced by NaCN in the presence of blocker", "setting": "[1]", "result": "24.7±2.6", "unit": "pA/pF"}, {"measurement": "ratio of peak current density induced by NaCN in the presence of blocker to that on exposure to NaCN alone", "setting": "[1]", "result": "1.3±0.1"}]}, {"smiles": "[Ba+2].[Cl-].[Cl-]", "note": "[Ba^2+, BaCl2]", "values": [{"measurement": "effect on NaCN induced current", "setting": "[2]", "result": "partially blocked"}, {"measurement": "effect on NaCN induced current", "setting": "[1]; Ba^2+ 20 mM", "result": "can prevent the appearance of the NaCN induced current"}, {"measurement": "effect on NaCN induced current", "setting": "[1]; Ba^2+ 20 mM, listed as Ba2+", "result": "abolished"}, {"measurement": "effect on NaCN induced current", "setting": "[1]; Ba^2+ 5-10 mM", "result": "Partial inhibition"}, {"measurement": "effect on NaCN induced current", "setting": "[1]; Ba^2+ 20-40 mM", "result": "almost complete elimination"}, {"measurement": "effect on NaCN induced current", "setting": "[1]; agent 1 mM", "result": "neither Ba^2+ (1 mM, upper panel) nor Cs^+ (3 mM, lower panel) can prevent the appearance of the NaCN induced current"}]}, {"smiles": "N=C(N)NCCC[C@H](N)C(=O)O", "note": "[L-arginine]", "values": [{"measurement": "effect on NaCN induced current", "setting": "[1]", "result": "can additionally activate an outward current; also recorded: increases the NaCN induced current"}]}, {"smiles": "[Cl-].[Cs+]", "note": "[Cs^+, CsCl]", "values": [{"measurement": "peak current densities of NaCN induced current with blocker", "setting": "[1]; Cs^+ 3 mM, n=5", "result": "19.1±2.4", "unit": "pA/pF"}, {"measurement": "effect on NaCN induced current", "setting": "[1]; agent 3 mM, listed as Cs+", "result": "insensitive"}, {"measurement": "effect on NaCN induced current", "setting": "[1]; agent 3 mM, listed as CsCl", "result": "not affected"}]}, {"smiles": "[Cl-].[Cl-].[Zn+2]", "note": "[Zn^2+, ZnCl2]", "values": [{"measurement": "effect on IKATP", "setting": "IKATP", "result": "cannot be blocked; also recorded: unaffected"}, {"measurement": "effect on NaCN induced current and cell shrinkage", "setting": "myocytes", "result": "prevent the appearance of the NaCN induced current and cell shrinkage"}, {"measurement": "effect on TJ induced current", "setting": "[3]", "result": "can prevent the appearance of TJ induced current"}, {"measurement": "effect on NaCN induced current", "setting": "[1]; Zn^2+ 5 mM", "result": "completely abolish"}, {"measurement": "effect on NaCN induced current", "setting": "[1]; agent 3 mM", "result": "reversibly abolished; also recorded: can prevent the appearance of the current induced by NaCN"}, {"measurement": "effect on NaCN induced current", "setting": "[1]; agent 3 mM, listed as ZnCl2", "result": "completely blocked; also recorded: abolished"}, {"measurement": "sensitivity of NaCN induced current in the presence of altered internal pH", "setting": "[1]", "result": "remains sensitive"}]}, {"smiles": "COC(=O)[C@@H](N)CCCNC(=N)N[N+](=O)[O-]", "note": "[L-NAME]", "values": [{"measurement": "effect on NaCN induced current", "setting": "[1]; agent 200 μM", "result": "reduced; also recorded: reduces the current"}]}, {"smiles": "Nc1ccncc1", "note": "[4AP, 4-Aminopyridine]", "values": [{"measurement": "peak current densities of NaCN induced current with blocker", "setting": "[1]; 4AP 4 mM, n=6", "result": "24.1±5.2", "unit": "pA/pF"}, {"measurement": "effect on NaCN induced current", "setting": "[1]; agent 4 mM", "result": "not reduced"}]}, {"smiles": "COc1ccc(Cl)cc1C(=O)NCCc1ccc(S(=O)(=O)NC(=O)NC2CCCCC2)cc1", "note": "[glibenclamide]", "values": [{"measurement": "effect on IKATP", "setting": "IKATP", "result": "abolished"}, {"measurement": "effect on NaCN induced current", "setting": "[1]; agent 200 μM", "result": "does not prevent the appearance of the NaCN induced current; also recorded: could not be abolished"}, {"measurement": "peak current densities induced by NaCN in the presence of blocker", "setting": "[1]", "result": "23.0±2.1", "unit": "pA/pF"}, {"measurement": "ratio of peak current density induced by NaCN in the presence of blocker to that on exposure to NaCN alone", "setting": "[1]", "result": "1.2±0.1"}]}, {"smiles": "CC(N/C(=N\\C#N)Nc1ccncc1)C(C)(C)C", "note": "(centres unmarked) [pinacidil]", "values": [{"measurement": "activation of IKATP", "setting": "IKATP; pinacidil 100 μM together with low intracellular ATP 0.1 mM", "result": "activated"}]}, {"smiles": "CCCCC/C=C\\C/C=C\\C/C=C\\C/C=C\\CCCC(=O)N[C@H](C)CO", "note": "[methanandamide]", "values": [{"measurement": "effect on NaCN induced current", "setting": "[1]; methanandamide 20 μM", "result": "does not block the current induced by NaCN"}, {"measurement": "effect on NaCN induced current", "setting": "[1]; methanandamide 20 μM to 100 μM", "result": "does not prevent the appearance of the NaCN induced current"}, {"measurement": "effect on NaCN induced current", "setting": "[1]; methanandamide 40 and 100 μM", "result": "significant increase"}, {"measurement": "effect on NaCN induced current", "setting": "[1]; methanandamide 40 and 100 μM, listed as Methanandamide", "result": "significantly increased"}]}, {"smiles": "C=C[C@H]1C[N@@]2CC[C@H]1C[C@@H]2[C@@H](O)c1ccnc2ccc(OC)cc12", "note": "[quinidine]", "values": [{"measurement": "effect on IKATP", "setting": "IKATP", "result": "unaffected"}, {"measurement": "effect on NaCN induced current and cell shrinkage", "setting": "myocytes", "result": "prevent the appearance of the NaCN induced current and cell shrinkage"}, {"measurement": "effect on TJ induced current", "setting": "[3]", "result": "partially blocked"}, {"measurement": "effect on NaCN induced current", "setting": "[1]; agent 1 mM", "result": "can prevent the appearance of the current induced by NaCN"}, {"measurement": "effect on NaCN induced current", "setting": "[1]; quinidine 0.5 mM", "result": "completely abolished; also recorded: can both block the peak current induced by NaCN and prevent its occurrence"}, {"measurement": "sensitivity of NaCN induced current in the presence of altered internal pH", "setting": "[1]", "result": "remains sensitive"}]}]}
